# Test results reported in paper PMC7464159, “Triple Negative Breast Cancer and Breast Epithelial Cells Differentially Reprogram Glucose and Lipid Metabolism upon Treatment with Triterpenic Acids” (Biomolecules, 2020).
# Experiments:
# MDA-MB-231 cells [1] = assay: 1H NMR metabolomics of polar (aqueous) cell extracts; assay type: cell-based, human
# Description: MDA-MB-231 and MCF-10A cells were seeded in 10-cm-diameter Petri dishes at a density of 6 × 10^5 cells/mL (10 mL per dish) and cultured for 24 h at 37 °C. […] Vehicle solvent control cells received DMSO (0.10% v/v). Samples were collected immediately after 48 h incubation or, to assess cellular recovery, medium was replaced with fresh growth medium (without TAs), and cells were incubated for additional 24 h before collection (48 + 24 h samples). Four independent assays were performed.
# After incubation, culture medium was collected and centrifuged (1000× g, 5 min) and the supernatant stored at −80 °C until analysis. Culture medium without cells was placed under the same conditions and collected. Cell extraction was performed as described by Carrola et al.. Briefly, cells were washed four times with PBS and extracted with a mixture of methanol:chloroform:water (1:1:0.7). The resulting polar and organic phases were collected and then dried under vacuum or under a stream of nitrogen gas, respectively. All samples were stored at −80 °C and, at the time of analysis, dried polar extracts were reconstituted in 600 µL of deuterated phosphate buffer (100 mM, pH 7.4) containing 0.1 mM TSP-d4, while organic extracts were reconstituted in deuterated chloroform containing 0.03% TMS. Regarding medium samples, 540 μL were mixed with 60 μL of D2O containing 0.25% TSP-d4. Prior to analysis, 550 μL of each sample were transferred to 5 mm NMR tubes.
# ^1H NMR spectra of all samples were acquired on a Bruker Avance III HD 500 NMR spectrometer (University of Aveiro, Portuguese NMR Network) operating at 500.13 MHz for ^1H observation equipped with a 5 mm TXI probe. Standard 1D spectra (Bruker pulse programs ‘noesypr1d’, with water suppression, for medium samples and aqueous extracts, and ‘zg’ for organic extracts) were recorded with a 7002.8 Hz spectral width, 32 k data points, a 2 s relaxation delay and 512 scans. Spectral processing comprised exponential multiplication with 0.3 Hz line broadening, zero filling to 64 k data points, manual phasing, baseline correction, and chemical shift calibration to the TSP or TMS signal at 0 ppm. 2D ^1H-^1H total correlation (TOCSY) spectra, ^1H-^13C heteronuclear single quantum correlation (HSQC) spectra and J-resolved spectra were also registered for selected samples to assist spectral assignment. Metabolites were identified with the support of 2D spectra and the spectral reference databases BBIOREFCODE-2-0-0 (Bruker Biospin, Rheinstetten, Germany) and HMDB [28]. Selected signals were then integrated using the AmixViewer software […] (version 3.9.14, Bruker BioSpin, Rheinstetten, Germany) and normalized by the total spectral area. The magnitude of each metabolite change was assessed through the percentage of variation (and its respective error) in exposed samples relatively to controls, and through the effect size (ES) adjusted for small sample numbers (and respective standard error). Metabolite variations with absolute ES greater than 0.8 were expressed in a heatmap, colored as a function of the percentage of variation, employing the R statistical software.
# MDA-MB-231 cells [2] = system: MDA-MB-231 cells; design: method as in PMID 28213701; conditions: UA 5–20 µM; cited from earlier work
smiles,measurement,setting,value
"C[C@H]1[C@H](C)CC[C@]2(C(=O)O)CC[C@]3(C)C(=CC[C@@H]4[C@@]5(C)CC[C@H](O)C(C)(C)[C@@H]5CC[C@]43C)[C@H]12 [UA, ursolic acid]",ATP %var,"MDA-MB-231 cells [1]; UA 10µM, 48h",0%
same,Acetate %var,"MDA-MB-231 cells [1]; UA 10µM, 48h",0%
same,Ala %var,"MDA-MB-231 cells [1]; UA 10µM, 48h",0%
same,Asp %var,"MDA-MB-231 cells [1]; UA 10µM, 48h",0%
same,Choline %var,"MDA-MB-231 cells [1]; UA 10µM, 48h",-6.23%
same,Citrate %var,"MDA-MB-231 cells [1]; UA 10µM, 48h",-23.26%
same,Cr %var,"MDA-MB-231 cells [1]; UA 10µM, 48h",0%
same,Fumarate %var,"MDA-MB-231 cells [1]; UA 10µM, 48h",0%
same,GPC %var,"MDA-MB-231 cells [1]; UA 10µM, 48h",9.94%
same,GSH %var,"MDA-MB-231 cells [1]; UA 10µM, 48h",-7.40%
same,Gln %var,"MDA-MB-231 cells [1]; UA 10µM, 48h",-13.00%
same,Glu %var,"MDA-MB-231 cells [1]; UA 10µM, 48h",0%
same,Gly %var,"MDA-MB-231 cells [1]; UA 10µM, 48h",0%
same,Ile %var,"MDA-MB-231 cells [1]; UA 10µM, 48h",0%
same,Lactate %var,"MDA-MB-231 cells [1]; UA 10µM, 48h",0%
same,Leu %var,"MDA-MB-231 cells [1]; UA 10µM, 48h",0%
same,PC %var,"MDA-MB-231 cells [1]; UA 10µM, 48h",-7.00%
same,PCr %var,"MDA-MB-231 cells [1]; UA 10µM, 48h",-13.59%
same,Phe %var,"MDA-MB-231 cells [1]; UA 10µM, 48h",0%
same,Pro %var,"MDA-MB-231 cells [1]; UA 10µM, 48h",0%
same,Tau %var,"MDA-MB-231 cells [1]; UA 10µM, 48h",0%
same,Tyr %var,"MDA-MB-231 cells [1]; UA 10µM, 48h",0%
same,Val %var,"MDA-MB-231 cells [1]; UA 10µM, 48h",0%
same,myo-Ino %var,"MDA-MB-231 cells [1]; UA 10µM, 48h",0%
same,ATP %var,"MDA-MB-231 cells [1]; UA 10µM, 48h+24h",0%
same,Acetate %var,"MDA-MB-231 cells [1]; UA 10µM, 48h+24h",0%
same,Ala %var,"MDA-MB-231 cells [1]; UA 10µM, 48h+24h",0.00%
same,Asp %var,"MDA-MB-231 cells [1]; UA 10µM, 48h+24h",0.00%
same,Choline %var,"MDA-MB-231 cells [1]; UA 10µM, 48h+24h",0%
same,Citrate %var,"MDA-MB-231 cells [1]; UA 10µM, 48h+24h",-10.99%
same,Cr %var,"MDA-MB-231 cells [1]; UA 10µM, 48h+24h",0%
same,Fumarate %var,"MDA-MB-231 cells [1]; UA 10µM, 48h+24h",0%
same,GPC %var,"MDA-MB-231 cells [1]; UA 10µM, 48h+24h",0%
same,GSH %var,"MDA-MB-231 cells [1]; UA 10µM, 48h+24h",0%
same,Gln %var,"MDA-MB-231 cells [1]; UA 10µM, 48h+24h",0%
same,Glu %var,"MDA-MB-231 cells [1]; UA 10µM, 48h+24h",0%
same,Gly %var,"MDA-MB-231 cells [1]; UA 10µM, 48h+24h",-7.50%
same,Ile %var,"MDA-MB-231 cells [1]; UA 10µM, 48h+24h",0%
same,Lactate %var,"MDA-MB-231 cells [1]; UA 10µM, 48h+24h",0%
same,Leu %var,"MDA-MB-231 cells [1]; UA 10µM, 48h+24h",0%
same,PC %var,"MDA-MB-231 cells [1]; UA 10µM, 48h+24h",0%
same,PCr %var,"MDA-MB-231 cells [1]; UA 10µM, 48h+24h",0%
same,Phe %var,"MDA-MB-231 cells [1]; UA 10µM, 48h+24h",0%
same,Pro %var,"MDA-MB-231 cells [1]; UA 10µM, 48h+24h",0%
same,Tau %var,"MDA-MB-231 cells [1]; UA 10µM, 48h+24h",0%
same,Tyr %var,"MDA-MB-231 cells [1]; UA 10µM, 48h+24h",0%
same,Val %var,"MDA-MB-231 cells [1]; UA 10µM, 48h+24h",0%
same,myo-Ino %var,"MDA-MB-231 cells [1]; UA 10µM, 48h+24h",0%
same,ATP %var,"MDA-MB-231 cells [1]; UA 20µM, 48h",0%
same,Acetate %var,"MDA-MB-231 cells [1]; UA 20µM, 48h",10.69%
same,Ala %var,"MDA-MB-231 cells [1]; UA 20µM, 48h",0%
same,Choline %var,"MDA-MB-231 cells [1]; UA 20µM, 48h",0%
same,Citrate %var,"MDA-MB-231 cells [1]; UA 20µM, 48h",-19.44%
same,Cr %var,"MDA-MB-231 cells [1]; UA 20µM, 48h",0%
same,GPC %var,"MDA-MB-231 cells [1]; UA 20µM, 48h",10.72%
same,GSH %var,"MDA-MB-231 cells [1]; UA 20µM, 48h",-7.50%
same,Gln %var,"MDA-MB-231 cells [1]; UA 20µM, 48h",0%
same,Glu %var,"MDA-MB-231 cells [1]; UA 20µM, 48h",0%
same,Gly %var,"MDA-MB-231 cells [1]; UA 20µM, 48h",-15.08%
same,Ile %var,"MDA-MB-231 cells [1]; UA 20µM, 48h",0%
same,Lactate %var,"MDA-MB-231 cells [1]; UA 20µM, 48h",0%
same,Leu %var,"MDA-MB-231 cells [1]; UA 20µM, 48h",0%
same,PC %var,"MDA-MB-231 cells [1]; UA 20µM, 48h",-6.17%
same,PCr %var,"MDA-MB-231 cells [1]; UA 20µM, 48h",-10.77%
same,Phe %var,"MDA-MB-231 cells [1]; UA 20µM, 48h",0%
same,Pro %var,"MDA-MB-231 cells [1]; UA 20µM, 48h",0%
same,Tau %var,"MDA-MB-231 cells [1]; UA 20µM, 48h",11.82%
same,Tyr %var,"MDA-MB-231 cells [1]; UA 20µM, 48h",0%
same,Val %var,"MDA-MB-231 cells [1]; UA 20µM, 48h",0%
same,myo-Ino %var,"MDA-MB-231 cells [1]; UA 20µM, 48h",0%
same,number of intracellular polar metabolites consistently altered,"MDA-MB-231 cells [1]; UA 20µM, 48h",10
same,ATP %var,"MDA-MB-231 cells [1]; UA 20µM, 48h+24h",-9.33%
same,Acetate %var,"MDA-MB-231 cells [1]; UA 20µM, 48h+24h",11.02%
same,Ala %var,"MDA-MB-231 cells [1]; UA 20µM, 48h+24h",-12.11%
same,Asp %var,"MDA-MB-231 cells [1]; UA 20µM, 48h+24h",32.91%
same,Choline %var,"MDA-MB-231 cells [1]; UA 20µM, 48h+24h",0%
same,Citrate %var,"MDA-MB-231 cells [1]; UA 20µM, 48h+24h",-15.02%
same,Cr %var,"MDA-MB-231 cells [1]; UA 20µM, 48h+24h",0%
same,Fumarate %var,"MDA-MB-231 cells [1]; UA 20µM, 48h+24h",-10.34%
same,GPC %var,"MDA-MB-231 cells [1]; UA 20µM, 48h+24h",-6.52%
same,GSH %var,"MDA-MB-231 cells [1]; UA 20µM, 48h+24h",-8.79%
same,Gln %var,"MDA-MB-231 cells [1]; UA 20µM, 48h+24h",0%
same,Glu %var,"MDA-MB-231 cells [1]; UA 20µM, 48h+24h",0%
same,Gly %var,"MDA-MB-231 cells [1]; UA 20µM, 48h+24h",-25.85%
same,Ile %var,"MDA-MB-231 cells [1]; UA 20µM, 48h+24h",0%
same,Lactate %var,"MDA-MB-231 cells [1]; UA 20µM, 48h+24h",0%
same,Leu %var,"MDA-MB-231 cells [1]; UA 20µM, 48h+24h",0%
same,PC %var,"MDA-MB-231 cells [1]; UA 20µM, 48h+24h",21.66%
same,PCr %var,"MDA-MB-231 cells [1]; UA 20µM, 48h+24h",0%
same,Phe %var,"MDA-MB-231 cells [1]; UA 20µM, 48h+24h",0%
same,Pro %var,"MDA-MB-231 cells [1]; UA 20µM, 48h+24h",0%
same,Tau %var,"MDA-MB-231 cells [1]; UA 20µM, 48h+24h",0%
same,Tyr %var,"MDA-MB-231 cells [1]; UA 20µM, 48h+24h",0%
same,Val %var,"MDA-MB-231 cells [1]; UA 20µM, 48h+24h",0%
same,myo-Ino %var,"MDA-MB-231 cells [1]; UA 20µM, 48h+24h",-9.02%
same,expression of glycolytic enzymes (HK2 and PKM2) and ATP content,MDA-MB-231 cells [2],decreased
